US9981916B2 (Genentech, Inc., priority 2013, dated 2018)

Molecular target: T1, RORc ligand binding domain (Homo sapiens, UniProt P51449)
T1 construct: host or cells: E. coli
T1 sequence (P51449 269-508 limits assumed): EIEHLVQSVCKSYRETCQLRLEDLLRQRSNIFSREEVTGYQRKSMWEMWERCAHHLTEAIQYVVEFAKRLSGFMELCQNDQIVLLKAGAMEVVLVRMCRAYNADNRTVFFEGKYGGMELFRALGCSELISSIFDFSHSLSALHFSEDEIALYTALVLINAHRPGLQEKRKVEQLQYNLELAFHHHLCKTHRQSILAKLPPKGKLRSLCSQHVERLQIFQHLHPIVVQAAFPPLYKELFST
Test: In vitro RORc ligand binding assay (25-[3H]hydroxycholesterol displacement, filter binding)
Details: 6 nM 25-[3H]hydroxycholesterol, 0.6 ug/mL RORc receptor, 3 h at 25° C.
In short: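 Filter-binding displacement of 6 nM 25-[3H]hydroxycholesterol from RORc receptor (0.6 ug/mL) in 50 mM HEPES pH 7.4, 150 mM NaCl, 5 mM MgCl2, 1 mM DTT, 0.01% BSA, 5% DMSO; 3 h at 25° C. NSB defined with 1 uM 25-hydroxycholesterol; scintillation counting gave Kiapp, IC50 or % inhibition (screening at 1 and 10 uM).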

Row | SMILES | IC50 [nM]
1 | CN(C)[C@@H]1CCN(C(=O)[C@]23CC[C@H](c4cc(-c5c(F)cccc5F)nnc42)C3(C)C)C1 [Example 242, ((5S,8S)-3-(2,6-difluorophenyl)-9,9-dimethyl-5,6,7,8-tetrahydro-5,8-methanocinnolin-8-yl) ((R)-3-(dimethylamino)pyrrolidin-1-yl)methanone] | 707
2 | COC(=O)C1CN(C(=O)[C@@]23CC[C@@H](c4cc(-c5c(F)cccc5F)nnc42)C3(C)C)C1 [Example 136, methyl 1-((5R,8R)-3-(2,6-difluorophenyl)-9,9-dimethyl-5,6,7,8-tetrahydro-5,8-methanocinnoline-8-carbonyl)azetidine-3-carboxylate] | 524
3 | CC1(C)[C@@H]2CC[C@@]1(C(=O)N1CCC3CC31)c1nnc(-c3c(F)cccc3F)cc12 (stereo partly drawn) [Example 223, 2-azabicyclo[3.1.0]hexan-2-yl((5S,8S)-3-(2,6-difluorophenyl)-9,9-dimethyl-5,6,7,8-tetrahydro-5,8-methanocinnolin-8-yl)methanone] | 196
4 | CC1(C)[C@@H]2CC[C@@]1(Cn1ccnc1)c1nnc(-c3ccccc3F)cc12 [Example 17, (5S,8R)-3-(2-fluorophenyl)-8-(1H-imidazol-1-ylmethyl)-9,9-dimethyl-5,6,7,8-tetrahydro-5,8-methanocinnoline] | 3170
5 | CCNC(=O)[C@]12CC[C@H](c3cc(-c4ccccc4F)nnc31)C2(C)C [Example 134, (5S,8S)-N-ethyl-3-(2-fluorophenyl)-9,9-dimethyl-5,6,7,8-tetrahydro-5,8-methanocinnoline-8-carboxamide] | 211
6 | Cc1nn(C)/c(=N\[C@@]23CC[C@@H](c4cc(-c5ccccc5F)nnc42)C3(C)C)o1 [Example 229, (5R,8R,E)-N-(3,5-dimethyl-1,3,4-oxadiazol-2(3H)-ylidene)-3-(2-fluorophenyl)-9,9-dimethyl-5,6,7,8-tetrahydro-5,8-methanocinnolin-8-amine] | 1530
7 | COC[C@@]12CC[C@@H](c3cc(-c4ccccc4F)nnc31)C2(C)C [Example 28, (5R,8R)-3-(2-fluorophenyl)-8-(methoxymethyl)-9,9-dimethyl-5,6,7,8-tetrahydro-5,8-methanocinnoline] | 210
8 | CC1(C)[C@H]2CC[C@]1(C(=O)N1CCC1)c1nnc(Oc3c(F)cccc3F)cc12 [Example 337, azetidin-1-yl((5R,8R)-3-(2,6-difluorophenoxy)-9,9-dimethyl-5,6,7,8-tetrahydro-5,8-methanocinnolin-8-yl)methanone] | 540
9 | CN(C)CC(=O)N[C@@]12CC[C@@H](c3cc(-c4ccccc4F)nnc31)C2(C)C [Example 89, N-[(5R,8R)-3-(2-fluorophenyl)-9,9-dimethyl-6,7-dihydro-5,8-methanocinnolin-8(5H)-yl]-N~2~,N~2~- dimethylglycinamide] | 5190
10 | CC1(C)[C@@H]2CC[C@@]1(C(=O)N1CC3COCC3C1)c1nnc(-c3c(F)cccc3F)cc12 (stereo partly drawn) [Example 217, ((5S,8S)-3-(2,6-difluorophenyl)-9,9-dimethyl-5,6,7,8-tetrahydro-5,8-methanocinnolin-8-yl)(tetrahydro-1H-furo[3,4-c]pyrrol-5(3H)-yl)methanone] | 144
11 | CC1(C)[C@H]2CC[C@]1(C(=O)Nc1ccccc1C#N)c1nnc(-c3ccccc3F)cc12 [Example 171, (5R,8R)-N-(2-cyanophenyl)-3-(2-fluorophenyl)-9,9-dimethyl-5,6,7,8-tetrahydro-5,8-methanocinnoline-8-carboxamide] | 3380
12 | CC1(C)[C@@H]2CC[C@@]1(C(=O)N1CCOCC1)c1nnc(-c3c(F)cccc3F)cc12 [Example 54, [(5S,8S)-3-(2,6-difluorophenyl)-9,9-dimethyl-6,7-dihydro-5,8-methanocinnolin-8(5H)-yl](morpholin-4-yl)methanone] | 42
13 | CC(C)(C)OC(=O)NCCC1CN(C(=O)[C@]23CC[C@H](c4cc(-c5c(F)cccc5F)nnc42)C3(C)C)C1 [Example 168, tert-butyl (2-(1-((5S,8S)-3-(2,6-difluorophenyl)-9,9-dimethyl-5,6,7,8-tetrahydro-5,8-methanocinnoline-8-carbonyl)azetidin-3-yl)ethyl)carbamate] | 2970
14 | COC(=O)C1CCN(C(=O)[C@]23CC[C@H](c4cc(-c5c(F)cccc5F)nnc42)C3(C)C)C1 (stereo partly drawn) [Example 213, methyl 1-((5S,8S)-3-(2,6-difluorophenyl)-9,9-dimethyl-5,6,7,8-tetrahydro-5,8-methanocinnoline-8-carbonyl)pyrrolidine-3-carboxylate] | 32

The remaining lines, values ahead:

Row | IC50 [nM] | SMILES
15 | 96 | Cc1coc([C@@]23CC[C@@H](c4cc(-c5c(F)cccc5F)nnc42)C3(C)C)n1 [Example 108, (5R,8R)-3-(2,6-difluorophenyl)-9,9-dimethyl-8-(4-methyl-1,3-oxazol-2-yl)-5,6,7,8-tetrahydro-5,8-methanocinnoline]
16 | 39 | CC1(C)[C@H]2CC[C@]1(c1cocn1)c1nnc(-c3c(F)cccc3F)cc12 [Example 114, (5R,8S)-3-(2,6-difluorophenyl)-9,9-dimethyl-8-(1,3-oxazol-4-yl)-5,6,7,8-tetrahydro-5,8-methanocinnoline]
17 | 22 | CC1(C)[C@H]2CC[C@]1(CN(CC(F)F)C(=O)CO)c1nnc(-c3c(F)cccc3F)cc12 [Example 308, N-(2,2-difluoroethyl)-N-(((5R,8S)-3-(2,6-difluorophenyl)-9,9-dimethyl-5,6,7,8-tetrahydro-5,8-methanocinnolin-8-yl)methyl)-2-hydroxyacetamide]
18 | 1390 | CCOC(=O)c1nnc([C@@]23CC[C@@H](c4cc(-c5c(F)cccc5F)nnc42)C3(C)C)o1 [Example 327, ethyl 5-((5R,8R)-3-(2,6-difluorophenyl)-9,9-dimethyl-5,6,7,8-tetrahydro-5,8-methanocinnolin-8-yl)-1,3,4-oxadiazole-2-carboxylate]
19 | 388 | CC1(C)[C@H]2CC[C@]1(Cc1nnc(CO)o1)c1nnc(-c3c(F)cccc3F)cc12 (stereo in doubt) [Example 76, (5-{[(5R,8R)-3-(2,6-difluorophenyl)-9,9-dimethyl-6,7-dihydro-5,8-methanocinnolin-8(5H)-yl]methyl}-1,3,4-oxadiazol-2-yl)methanol]
20 | 19 | Cc1ncc([C@@]23CC[C@@H](c4cc(-c5c(F)cccc5F)nnc42)C3(C)C)o1 [Example 117, (5R,8R)-3-(2,6-difluorophenyl)-9,9-dimethyl-8-(2-methyl-1,3-oxazol-5-yl)-5,6,7,8-tetrahydro-5,8-methanocinnoline]
21 | 4 | CCN(C[C@@]12CC[C@@H](c3cc(-c4c(F)cccc4F)nnc31)C2(C)C)c1ncccn1 [Example 164, N-(((5R,8S)-3-(2,6-difluorophenyl)-9,9-dimethyl-5,6,7,8-tetrahydro-5,8-methanocinnolin-8-yl)methyl)-N-ethylpyrimidin-2-amine]
22 | 28 | CC(C)(O)[C@@]12CC[C@@H](c3cc(-c4c(F)cccc4F)nnc31)C2(C)C [Example 300, 2-((5R,8R)-3-(2,6-difluorophenyl)-9,9-dimethyl-5,6,7,8-tetrahydro-5,8-methanocinnolin-8-yl)propan-2-ol]
23 | 27 | CCN(C[C@@]12CC[C@@H](c3cc(-c4c(F)cccc4F)nnc31)C2(C)C)C(=O)CC#N [Example 160, 2-cyano-N-(((5R,8S)-3-(2,6-difluorophenyl)-9,9-dimethyl-5,6,7,8-tetrahydro-5,8-methanocinnolin-8-yl)methyl)-N-ethylacetamide]
24 | 314 | CC1(C)[C@@H]2CC[C@@]1(C(=O)N1CCC(CCO)C1)c1nnc(-c3c(F)cccc3F)cc12 (stereo partly drawn) [Example 262, ((5S,8S)-3-(2,6-difluorophenyl)-9,9-dimethyl-5,6,7,8-tetrahydro-5,8-methanocinnolin-8-yl)(3-(2-hydroxyethyl)pyrrolidin-1-yl)methanone]
25 | 856 | CC1(C)[C@H]2CC[C@]1(CN1CCCS1(=O)=O)c1nnc(-c3c(F)cccc3F)cc12 [Example 284, 2-(((5R,8S)-3-(2,6-difluorophenyl)-9,9-dimethyl-5,6,7,8-tetrahydro-5,8-methanocinnolin-8-yl)methyl)isothiazolidine 1,1-dioxide]
26 | 693 | CC1(C)CN(C(=O)[C@]23CC[C@H](c4cc(-c5c(F)cccc5F)nnc42)C3(C)C)C1 [Example 74, [(5S,8S)-3-(2,6-difluorophenyl)-9,9-dimethyl-6,7-dihydro-5,8-methanocinnolin-8(5H)-yl](3,3-dimethylazetidin-1-yl)methanone]
27 | 12 | CCN(C[C@@]12CC[C@@H](c3cc(-c4c(F)cccc4F)nnc31)C2(C)C)c1cccc(=O)[nH]1 [Example 301, 6-((((5R,8S)-3-(2,6-difluorophenyl)-9,9-dimethyl-5,6,7,8-tetrahydro-5,8-methanocinnolin-8-yl)methyl)(ethyl)amino) pyridin-2(1H)-one]
28 | 9 | Cc1nnc(N(CC(F)F)C[C@@]23CC[C@@H](c4cc(-c5c(F)cccc5F)nnc42)C3(C)C)o1 [Example 166, N-(2,2-difluoroethyl)-N-(((5R,8S)-3-(2,6-difluorophenyl)-9,9-dimethyl-5,6,7,8-tetrahydro-5,8-methanocinnolin-8-yl)methyl)-5-methyl-1,3,4-oxadiazol-2-amine]
29 | 1500 | CN(C)C(=O)N[C@@]12CC[C@@H](c3cc(-c4c(F)cccc4F)nnc31)C2(C)C [Example 320, 3-((5R,8R)-3-(2,6-difluorophenyl)-9,9-dimethyl-5,6,7,8-tetrahydro-5,8-methanocinnolin-8-yl)-1,1-dimethylurea]
